From ChEMBL document CHEMBL3991601, “The target landscape of clinical kinase drugs” (Science, 2017) come the findings set out here.

Calls of active or inactive are those of the source.

The target in test [1] is Cyclin-dependent kinase 13 (Homo sapiens, UniProt Q14004).
Test [2] addresses Casein kinase II subunit alpha' (Homo sapiens, UniProt P19784).
The target of the next test is T1, Ephrin type-B receptor 2 (Homo sapiens, UniProt P29323).
T1 sequence (P29323 whole entry): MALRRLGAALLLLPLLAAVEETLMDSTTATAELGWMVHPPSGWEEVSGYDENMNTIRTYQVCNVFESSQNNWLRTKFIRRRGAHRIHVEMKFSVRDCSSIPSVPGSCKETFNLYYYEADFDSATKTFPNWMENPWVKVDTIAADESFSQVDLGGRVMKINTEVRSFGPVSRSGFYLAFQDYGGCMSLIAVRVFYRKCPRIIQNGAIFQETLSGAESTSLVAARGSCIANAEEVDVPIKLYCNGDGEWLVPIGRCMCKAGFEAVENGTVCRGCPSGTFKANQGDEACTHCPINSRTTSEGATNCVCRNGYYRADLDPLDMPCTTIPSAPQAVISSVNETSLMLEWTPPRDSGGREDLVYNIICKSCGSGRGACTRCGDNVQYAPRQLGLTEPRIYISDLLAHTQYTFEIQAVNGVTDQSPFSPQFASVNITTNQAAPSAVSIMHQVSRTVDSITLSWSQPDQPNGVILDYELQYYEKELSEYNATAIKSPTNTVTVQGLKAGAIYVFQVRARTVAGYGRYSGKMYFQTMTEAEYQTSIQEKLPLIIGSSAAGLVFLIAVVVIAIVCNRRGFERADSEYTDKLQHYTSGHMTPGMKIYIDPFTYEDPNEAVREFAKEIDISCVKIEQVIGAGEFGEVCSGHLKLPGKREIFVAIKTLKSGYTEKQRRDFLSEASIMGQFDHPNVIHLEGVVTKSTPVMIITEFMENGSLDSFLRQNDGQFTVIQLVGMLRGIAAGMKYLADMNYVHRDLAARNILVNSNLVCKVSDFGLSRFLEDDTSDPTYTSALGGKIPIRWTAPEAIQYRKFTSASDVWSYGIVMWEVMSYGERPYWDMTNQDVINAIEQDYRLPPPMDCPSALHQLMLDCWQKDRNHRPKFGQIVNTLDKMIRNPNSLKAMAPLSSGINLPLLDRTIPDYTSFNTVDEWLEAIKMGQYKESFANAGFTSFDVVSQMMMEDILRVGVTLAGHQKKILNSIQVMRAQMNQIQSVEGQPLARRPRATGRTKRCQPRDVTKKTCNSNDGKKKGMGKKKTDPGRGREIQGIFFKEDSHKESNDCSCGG

The target in a further test is T2, Heme oxygenase 2 (Homo sapiens, UniProt P30519).
T2 sequence (P30519 whole entry): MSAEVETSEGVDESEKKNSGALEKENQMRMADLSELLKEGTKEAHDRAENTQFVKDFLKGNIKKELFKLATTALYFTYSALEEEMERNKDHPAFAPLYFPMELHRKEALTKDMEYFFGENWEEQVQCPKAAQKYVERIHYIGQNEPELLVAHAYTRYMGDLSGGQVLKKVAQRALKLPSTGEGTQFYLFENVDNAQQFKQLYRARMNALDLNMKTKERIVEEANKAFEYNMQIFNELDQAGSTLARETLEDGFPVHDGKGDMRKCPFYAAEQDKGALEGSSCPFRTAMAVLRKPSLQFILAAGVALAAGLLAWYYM

For test [3], the target named is cAMP-dependent protein kinase type II-alpha regulatory subunit (Homo sapiens, UniProt P13861).
In test [4] the target is T3, Exosome RNA helicase MTR4 (Homo sapiens, UniProt P42285).
T3 sequence (P42285 whole entry): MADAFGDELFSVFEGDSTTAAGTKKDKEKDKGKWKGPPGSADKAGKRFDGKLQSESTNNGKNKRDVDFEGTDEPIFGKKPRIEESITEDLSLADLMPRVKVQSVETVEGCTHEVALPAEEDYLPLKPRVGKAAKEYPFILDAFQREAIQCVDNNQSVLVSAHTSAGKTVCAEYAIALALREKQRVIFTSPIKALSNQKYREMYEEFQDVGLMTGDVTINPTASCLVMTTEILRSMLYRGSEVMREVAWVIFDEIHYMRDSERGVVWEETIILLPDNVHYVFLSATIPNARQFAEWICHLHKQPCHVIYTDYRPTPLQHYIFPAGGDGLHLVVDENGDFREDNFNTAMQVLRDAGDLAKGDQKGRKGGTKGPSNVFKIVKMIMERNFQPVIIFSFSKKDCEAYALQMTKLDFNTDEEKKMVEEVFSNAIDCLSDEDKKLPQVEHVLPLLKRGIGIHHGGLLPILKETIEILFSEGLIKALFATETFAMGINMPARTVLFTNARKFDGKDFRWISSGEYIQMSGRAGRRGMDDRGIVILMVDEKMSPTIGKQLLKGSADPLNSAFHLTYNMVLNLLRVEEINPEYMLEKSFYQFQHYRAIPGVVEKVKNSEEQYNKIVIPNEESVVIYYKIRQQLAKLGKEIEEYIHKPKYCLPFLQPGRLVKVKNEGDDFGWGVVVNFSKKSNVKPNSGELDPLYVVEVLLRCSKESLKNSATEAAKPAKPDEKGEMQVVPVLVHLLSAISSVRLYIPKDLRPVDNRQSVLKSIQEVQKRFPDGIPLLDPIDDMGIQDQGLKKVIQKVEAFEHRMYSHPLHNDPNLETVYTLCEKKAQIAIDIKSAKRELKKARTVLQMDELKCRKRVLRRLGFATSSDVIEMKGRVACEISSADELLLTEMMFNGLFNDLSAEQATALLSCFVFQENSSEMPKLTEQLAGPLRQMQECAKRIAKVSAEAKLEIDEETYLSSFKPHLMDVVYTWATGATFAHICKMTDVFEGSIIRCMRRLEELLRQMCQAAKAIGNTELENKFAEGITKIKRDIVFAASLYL

In test [5] the target is Mitogen-activated protein kinase kinase kinase 20 (Homo sapiens, UniProt Q9NYL2).
A further test concerns the target TGF-beta receptor type-2 (Homo sapiens, UniProt P37173).
Further: in the data inactive means no Kd found up to 30 µM.

Chain of Mitogen-activated protein kinase kinase kinase 20 (Q9NYL2 whole entry): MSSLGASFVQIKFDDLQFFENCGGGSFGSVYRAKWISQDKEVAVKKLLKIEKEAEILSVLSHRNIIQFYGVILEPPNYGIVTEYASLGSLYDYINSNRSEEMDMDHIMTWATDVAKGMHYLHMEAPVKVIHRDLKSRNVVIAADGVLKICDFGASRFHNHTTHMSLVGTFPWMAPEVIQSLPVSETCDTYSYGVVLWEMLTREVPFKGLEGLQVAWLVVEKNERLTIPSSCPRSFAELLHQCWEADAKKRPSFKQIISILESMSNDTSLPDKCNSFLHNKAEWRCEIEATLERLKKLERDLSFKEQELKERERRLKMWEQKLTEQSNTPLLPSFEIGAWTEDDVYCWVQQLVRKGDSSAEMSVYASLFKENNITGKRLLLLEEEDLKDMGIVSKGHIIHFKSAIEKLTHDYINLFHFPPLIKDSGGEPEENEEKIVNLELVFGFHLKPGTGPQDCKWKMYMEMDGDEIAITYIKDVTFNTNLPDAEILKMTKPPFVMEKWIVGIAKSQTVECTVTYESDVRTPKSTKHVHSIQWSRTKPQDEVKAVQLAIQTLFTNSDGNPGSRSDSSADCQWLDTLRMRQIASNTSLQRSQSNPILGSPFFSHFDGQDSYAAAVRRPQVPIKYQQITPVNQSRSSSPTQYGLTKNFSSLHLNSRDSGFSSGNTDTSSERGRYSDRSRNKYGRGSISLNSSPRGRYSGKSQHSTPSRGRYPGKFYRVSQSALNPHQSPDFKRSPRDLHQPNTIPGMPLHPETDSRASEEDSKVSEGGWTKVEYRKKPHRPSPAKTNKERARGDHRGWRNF
Chain of Cyclin-dependent kinase 13 (Q14004 whole entry): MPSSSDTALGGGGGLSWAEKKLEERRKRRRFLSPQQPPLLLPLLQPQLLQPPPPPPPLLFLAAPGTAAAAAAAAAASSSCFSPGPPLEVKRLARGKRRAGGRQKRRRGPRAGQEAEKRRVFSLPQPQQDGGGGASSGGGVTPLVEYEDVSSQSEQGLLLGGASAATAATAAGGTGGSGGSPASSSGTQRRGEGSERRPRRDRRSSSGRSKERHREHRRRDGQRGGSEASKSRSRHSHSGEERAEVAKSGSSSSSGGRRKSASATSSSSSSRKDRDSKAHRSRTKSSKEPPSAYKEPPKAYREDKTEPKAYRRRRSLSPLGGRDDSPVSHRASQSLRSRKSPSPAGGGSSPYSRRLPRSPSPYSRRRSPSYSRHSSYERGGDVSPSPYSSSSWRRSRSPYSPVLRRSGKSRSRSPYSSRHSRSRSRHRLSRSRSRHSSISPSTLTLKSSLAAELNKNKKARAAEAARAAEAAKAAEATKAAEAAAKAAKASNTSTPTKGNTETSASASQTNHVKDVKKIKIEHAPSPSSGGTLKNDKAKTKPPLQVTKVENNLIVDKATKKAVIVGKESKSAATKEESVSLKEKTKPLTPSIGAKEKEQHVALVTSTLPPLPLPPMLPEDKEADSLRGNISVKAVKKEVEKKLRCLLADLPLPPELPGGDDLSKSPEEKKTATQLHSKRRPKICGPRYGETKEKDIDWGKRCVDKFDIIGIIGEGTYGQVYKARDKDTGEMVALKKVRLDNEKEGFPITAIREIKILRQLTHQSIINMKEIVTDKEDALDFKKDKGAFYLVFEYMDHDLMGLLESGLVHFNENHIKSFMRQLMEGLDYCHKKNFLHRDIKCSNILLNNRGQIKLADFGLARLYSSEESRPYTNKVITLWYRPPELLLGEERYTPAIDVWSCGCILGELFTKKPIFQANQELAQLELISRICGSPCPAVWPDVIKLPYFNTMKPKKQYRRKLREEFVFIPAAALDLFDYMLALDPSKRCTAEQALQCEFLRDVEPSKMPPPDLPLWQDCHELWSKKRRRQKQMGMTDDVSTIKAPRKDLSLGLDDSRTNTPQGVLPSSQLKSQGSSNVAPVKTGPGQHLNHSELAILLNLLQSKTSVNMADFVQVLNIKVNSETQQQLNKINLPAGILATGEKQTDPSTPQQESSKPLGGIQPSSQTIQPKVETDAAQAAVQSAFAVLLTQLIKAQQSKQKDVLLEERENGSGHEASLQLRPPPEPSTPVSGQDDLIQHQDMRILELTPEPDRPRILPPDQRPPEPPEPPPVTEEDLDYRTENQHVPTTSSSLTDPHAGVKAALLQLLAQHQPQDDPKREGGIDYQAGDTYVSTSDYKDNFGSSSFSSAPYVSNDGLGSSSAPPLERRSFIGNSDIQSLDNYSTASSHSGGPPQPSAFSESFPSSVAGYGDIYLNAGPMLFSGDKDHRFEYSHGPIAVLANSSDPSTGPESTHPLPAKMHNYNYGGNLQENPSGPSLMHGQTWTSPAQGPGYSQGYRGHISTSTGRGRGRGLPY
Chain of TGF-beta receptor type-2 (P37173 whole entry): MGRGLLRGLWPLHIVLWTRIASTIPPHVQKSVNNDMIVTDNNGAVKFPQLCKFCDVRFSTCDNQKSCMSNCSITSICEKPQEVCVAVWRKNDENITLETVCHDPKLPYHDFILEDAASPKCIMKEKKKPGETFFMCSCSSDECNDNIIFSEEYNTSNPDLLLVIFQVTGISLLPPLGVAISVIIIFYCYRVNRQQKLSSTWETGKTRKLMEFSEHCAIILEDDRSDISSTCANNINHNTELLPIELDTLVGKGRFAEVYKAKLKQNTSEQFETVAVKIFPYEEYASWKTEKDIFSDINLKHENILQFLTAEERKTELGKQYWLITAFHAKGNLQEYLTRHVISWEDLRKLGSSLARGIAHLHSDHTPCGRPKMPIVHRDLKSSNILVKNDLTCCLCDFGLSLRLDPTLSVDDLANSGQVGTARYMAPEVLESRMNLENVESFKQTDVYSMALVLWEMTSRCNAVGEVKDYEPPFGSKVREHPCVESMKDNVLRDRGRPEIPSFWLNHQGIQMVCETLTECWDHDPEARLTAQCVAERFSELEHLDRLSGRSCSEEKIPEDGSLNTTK
Chain of cAMP-dependent protein kinase type II-alpha regulatory subunit (P13861 whole entry): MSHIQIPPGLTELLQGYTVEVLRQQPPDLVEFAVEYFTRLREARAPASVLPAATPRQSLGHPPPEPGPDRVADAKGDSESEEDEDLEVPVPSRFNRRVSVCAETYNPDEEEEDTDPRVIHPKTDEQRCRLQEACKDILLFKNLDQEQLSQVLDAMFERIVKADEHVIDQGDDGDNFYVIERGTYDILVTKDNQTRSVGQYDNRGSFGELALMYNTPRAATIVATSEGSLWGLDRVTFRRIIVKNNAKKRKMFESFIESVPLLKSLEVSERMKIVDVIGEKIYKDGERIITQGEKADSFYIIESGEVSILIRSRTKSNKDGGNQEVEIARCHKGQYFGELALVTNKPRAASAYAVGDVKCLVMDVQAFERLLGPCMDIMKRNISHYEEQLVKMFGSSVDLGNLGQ
Chain of Casein kinase II subunit alpha' (P19784 whole entry): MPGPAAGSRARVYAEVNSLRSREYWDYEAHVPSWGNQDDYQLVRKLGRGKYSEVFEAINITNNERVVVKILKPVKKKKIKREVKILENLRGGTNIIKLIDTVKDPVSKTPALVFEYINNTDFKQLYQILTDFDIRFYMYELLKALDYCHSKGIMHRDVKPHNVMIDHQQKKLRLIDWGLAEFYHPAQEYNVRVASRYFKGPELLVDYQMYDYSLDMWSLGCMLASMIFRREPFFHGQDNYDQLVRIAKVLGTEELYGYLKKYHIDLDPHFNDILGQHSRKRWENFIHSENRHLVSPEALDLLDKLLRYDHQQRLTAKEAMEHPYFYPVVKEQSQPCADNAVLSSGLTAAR

With `C[C@H]1CNCCCN1S(=O)(=O)c1cccc2cncc(F)c12`, the Kd (in test [1]; in test [2]; on Ephrin type-B receptor 2; at Heme oxygenase 2; in test [3]; in test [4]) was > 30 µM (inactive) throughout. For the same molecule, the Kd – broadly, the equilibrium constant for the complex coming apart – in test [5] is > 30 µM (inactive).
Regarding `COc1cc(Nc2ncc3c(n2)-c2ccc(Cl)cc2C(c2c(F)cccc2OC)=NC3)ccc1C(=O)O` [ALISERTIB], the Kd (in test [1]; at Ephrin type-B receptor 2; at Heme oxygenase 2; in test [3]; in test [4]; at TGF-beta receptor type-2) was > 30 µM (inactive) each time.
On to `Cc1nc(NC(=O)N2CCC[C@H]2C(N)=O)sc1-c1ccnc(C(C)(C)C(F)(F)F)c1` [ALPELISIB], for which the Kd (in test [1]; in test [2]; at Ephrin type-B receptor 2; on Heme oxygenase 2; in test [3]; in test [4]) was > 30 µM (inactive) each time. The Kd in test [5] is > 30 µM (inactive).
For `O=C(Nc1c[nH]nc1-c1nc2cc(CN3CCOCC3)ccc2[nH]1)NC1CC1` [AT-9283], the dissociation constant Kd in test [2] is 0.065 µM (active); on Ephrin type-B receptor 2 it was > 30 µM (inactive); on Heme oxygenase 2, > 30 µM (inactive); in test [3], > 30 µM (inactive); in test [4], > 30 µM (inactive); in test [5], > 30 µM (inactive).
In the case of `CNC(=O)c1ccccc1Sc1ccc2c(/C=C/c3ccccn3)n[nH]c2c1` [AXITINIB], the Kd (at Heme oxygenase 2; in test [3]; in test [4]) was > 30 µM (inactive) throughout.
With `COc1cc([C@@H]2c3cc4c(cc3[C@H](O)[C@H]3COC(=O)[C@@H]23)OCO4)cc(OC)c1OC` [AXL-1717], the Kd (in test [2]; at Ephrin type-B receptor 2; on Heme oxygenase 2; in test [3]; in test [4]; on TGF-beta receptor type-2) was > 30 µM (inactive) each time. Also, the Kd in test [5] is > 30 µM (inactive).
As for `CC(C)(C)c1nc(-c2cccc(NS(=O)(=O)c3c(F)cccc3F)c2F)c(-c2ccnc(N)n2)s1` [DABRAFENIB], the Kd is > 30 µM (inactive) in test [1]; > 30 µM (inactive) at Ephrin type-B receptor 2; > 30 µM (inactive) on Heme oxygenase 2; > 30 µM (inactive) in test [3]; > 30 µM (inactive) in test [4]; 2.53 µM (active) on TGF-beta receptor type-2. Besides, in test [5], the Kd was 0.184 µM (active).
Regarding `Cn1cc(C2=C(c3cn(C4CCN(Cc5ccccn5)CC4)c4ccccc34)C(=O)NC2=O)c2ccccc21` [ENZASTAURIN], the Kd (at Heme oxygenase 2; in test [3]; in test [4]) was > 30 µM (inactive) throughout.
In the case of `C[C@@H](Oc1cc(-n2cnc3ccc(CN4CCN(C)CC4)cc32)sc1C(N)=O)c1ccccc1C(F)(F)F` [GSK-461364], the Kd (on Heme oxygenase 2; in test [3]; in test [4]) was > 30 µM (inactive) each time.
On to `CCn1cc(-c2ccnc3[nH]c(-c4cccc(CN(C)C)c4)cc23)c(-c2ccc(NC(=O)N(C)C)cc2)n1` [GSK-1070916], for which the Kd (in test [2]; at Ephrin type-B receptor 2; at Heme oxygenase 2; in test [3]; in test [4]; at TGF-beta receptor type-2) was > 30 µM (inactive) each time. For the same molecule, the Kd in test [5] is > 30 µM (inactive).
Consider `Cc1[nH]c(/C=C2\C(=O)Nc3ccccc32)c(C)c1CCC(=O)O` [ORANTINIB], for which the Kd is > 30 µM (inactive) in test [1]; 2.1 µM (active) in test [2]; > 30 µM (inactive) on Ephrin type-B receptor 2; > 30 µM (inactive) on Heme oxygenase 2; > 30 µM (inactive) in test [3]; > 30 µM (inactive) in test [4]. Further, on TGF-beta receptor type-2, the Kd is > 30 µM (inactive).
For the molecule `NC(=O)c1c(OCc2c(F)cc(Br)cc2F)nsc1NC(=O)NCCCCN1CCCC1` [OSI-632], the Kd (in test [2]; at Ephrin type-B receptor 2; on Heme oxygenase 2; in test [3]; in test [4]) was > 30 µM (inactive) in each case.
As to `CCCCCCCCCCCCCCCCCCOP(=O)([O-])OC1CC[N+](C)(C)CC1` [PERIFOSINE], the Kd (in test [1]; in test [2]; at Ephrin type-B receptor 2; on Heme oxygenase 2; in test [4]; in test [5]) was > 30 µM (inactive) each time.
Regarding `CC(=O)NCC(=O)N1[C@@H]2CC[C@H]1c1ccc(Nc3ncc(C(F)(F)F)c(NC4CCC4)n3)cc12` [PF-03814735], the Kd in test [1] was > 30 µM (inactive); in test [2] it was 2.64 µM (active); on Ephrin type-B receptor 2 it was > 30 µM (inactive); on Heme oxygenase 2 it was > 30 µM (inactive); in test [3], > 30 µM (inactive); in test [4], > 30 µM (inactive). Also, the Kd on TGF-beta receptor type-2 is > 30 µM (inactive).
Take `O=C(NOCCO)c1cc(CN2OCCCC2=O)c(F)c(F)c1Nc1ccc(I)cc1F` [RO-4987655]: the Kd (on Heme oxygenase 2; in test [3]; in test [4]) was > 30 µM (inactive) throughout.
Turning to `N#CC[C@H](C1CCCC1)n1cc(-c2ncnc3[nH]ccc23)cn1` [RUXOLITINIB], the Kd (on Heme oxygenase 2; in test [3]; in test [4]) was > 30 µM (inactive) in each case.
Consider `Cn1ncc(Cl)c1-c1cc(C(=O)N[C@H](CN)Cc2ccc(F)c(F)c2)oc1Cl` [UPROSERTIB], for which the Kd (in test [1]; in test [2]; on Ephrin type-B receptor 2; in test [3]; in test [4]; in test [5]) was > 30 µM (inactive) each time.
